The text below walks through data of US6255092A, “Stereospecific alcohol dehydrogenase isolated from Candida parapsilosis, amino acid and DNA sequences therefor, and method of preparation thereof” (Daicel Chemical Industries Ltd., priority 1993, dated 2001).

Where two headings read alike, the source gives them in different places.

The target of data set [1] is T1, secondary alcohol dehydrogenase (Lodderomyces parapsilosis, UniProt O42703). Description: biochemical. Conditions: for remaining activity at 1000 µM: read-out: Relative activity (remaining activity). It counts as biochemical, Candida parapsilosis. Further details: full length 336 aa, about 40 kDa; gene also expressed in E. coli JM109 (pKK-CPA1). The protocol:
After said enzyme was incubated at 30° C. for 30 min in the presence of various reagents, the remaining activity was assayed and expressed as the percentage relative to that (100%) of the untreated enzyme (Table 5).

The target in data set [2] is T1, secondary alcohol dehydrogenase. Description: Substrate specificity: reducing activity with ketones/aldehydes (NADH). It counts as biochemical, Candida parapsilosis. Details: full length 336 aa, about 40 kDa; gene also expressed in E. coli JM109 (pKK-CPA1). Conditions: reduction, coenzyme NADH, relative to 2-butanone reducing activity (100%).
Data set [3] shares this target.
Excerpt: (§1) One unit of enzyme was defined as the amount of enzyme necessary to catalyze the formation of 1 μmol of NADH per min under the assay conditions.
A short description of data set [4]: pH optimum of 2-butanone reducing activity. To be noted: NADH, KPB, Tris-HCl and Briton-Robinson buffer. It counts as biochemical, Candida parapsilosis.
A short description of data set [5]: Optimum reaction temperature, standard assay. The data set is classed as biochemical, Candida parapsilosis. The protocol: The secondary alcohol dehydrogenase activity was assayed under the standard assay conditions at different temperature as shown in Table 2.
Data set [6] can be described thus: pH optimum of (S)-2-butanol oxidizing activity. Conditions: KPB, Tris-HCl and Briton-Robinson buffer. It counts as biochemical, Candida parapsilosis.
Excerpt: as §1
A short description of data set [7]: Specific activity of the purified enzyme, standard assay. It counts as biochemical, Candida parapsilosis. Conditions: purified enzyme after Mono-Q, (S)-2-butanol, pH 9.0, 30° C. The procedure: The wet cells thus obtained were disrupted in a high pressure cell disintegrator, and centrifuged to remove cell debris. To the cell-free extract protamine sulfate was added to remove nucleic acids and microsomes. After centrifugation, the supernatant was brought to 70% saturation with ammonium sulfate, and the precipitate was collected, subjected to anion exchange chromatography on Q-Sepharose FF, eluted with a density gradient of NaCl, and the peak fraction containing said secondary alcohol dehydrogenase activity was collected. The active fraction was then subjected to hydrophobic chromatography on a column of phenyl-Sepharose equilibrated with a buffer containing 1.62 M ammonium sulfate, and the active fraction was eluted by reducing the ammonium sulfate concentration to 0 M (the enzyme activity was assayed as described hereinbefore). After the active fraction was added to a Red Sepharose affinity column, the unretained fraction was subjected to a Superdex 200 gel filtration. The recovered active fraction was subjected to anion exchange chromatography on a Mono Q column and eluted with a density gradient of NaCl. Only active fractions which gave a single band in the purity test on SDS-PAGE were collected.

The nature of data set [8]: Thermostability of the purified enzyme. It counts as physicochemical, Candida parapsilosis. Conditions: 40° C. for 10 min, pH 8.0, relative to the original activity. The procedure: After the purified enzyme was incubated at pH 8.0 and 30° C.-70° C. for 10 min, the remaining activity was assayed. Even after the incubation at 40° C. for 10 min, more than 90% of the original enzyme activity was retained (FIG. 5).

For data set [9] the following is noted: relative to that for ethanol; cited from earlier work.
[10] abbreviates: inhibitor 1 mM, 30° C. for 30 min, relative to untreated enzyme (100%).
[11] abbreviates: oxidation, substrate 5 mM, coenzyme NAD+, relative to (S)-2-butanol oxidizing activity (100%).

In the case of `OCCS` [b-Mercaptoethanol, 2-mercaptoethanol], the “Inhibition of the enzyme activity (in words)” value (“Inhibition” for short) in data set [1] is “markedly inhibited”. Besides, the remaining activity at 1000 µM in [1] (setting [10]) was 3.2%.

With `CCC(C)=O` [2-Butanone], in data set [2] (substrate 100 mM), the Relative activity is recorded as 100.0%.

With `[Cl][Hg][Cl]` [HgCl2, mercuric chloride], the “Inhibition” value in data set [1] is on record as “markedly inhibited”. Moreover, the “Relative activity (remaining activity)” value in data set [1] (setting [10]) turned out to be 0.0%.

With `O=S(=O)([O-])[O-].[Cu+2]` [CuSO4], the “Relative activity (remaining activity)” value in data set [1] (setting [10]) came to 25.5%.

In the case of `O[C@H](CS)[C@H](O)CS` (racemic) [Dithiothreitol], in data set [1], the “Inhibition” value was “markedly inhibited”. Also, in data set [1] (setting [10]), the remaining activity at 1000 µM came to 0%.

In the case of `OC1CCCCC1` [Cyclohexanol], the Relative activity in [3] amounted to 52.8.

Take `NC(=O)CI` [iodoacetamide]: the “Inhibition” value in data set [1] is on record as “markedly inhibited”.

Take `CCN1C(=O)C=CC1=O` [N-Ethylmaleimide]: the “Inhibition” value in data set [1] is on record as “inhibited”. In addition, in data set [1] (setting [10]), the remaining activity at 1000 µM was 21.2%.

For `CC(C)=O` [Acetone], in [2] (substrate 100 mM), the Relative activity is 123.4%.

For `[Cl-].[Cl-].[Zn+2]` [ZnCl2, zinc chloride], the “Inhibition” value in [1] is listed as “markedly inhibited”. In addition, the “Relative activity (remaining activity)” value in data set [1] (setting [10]) is given as 16.4%.

For `CC(=O)C(C)(C)O` [3-Hydroxy-3-methyl-2-butanone], in data set [2] (substrate 100 mM), the Relative activity turned out to be 18.5%.

Take `CCCCCC[C@@H](C)O` [(R)-2-Octanol]: in data set [3] (setting [11]), the Relative activity was determined as 0.0%.

Take `CC(=O)c1ccccc1` [Acetophenone]: the Relative activity in data set [2] (substrate 20 mM) is recorded as 121.8%.

Regarding `O=C(O)CN(CCN(CC(=O)O)CC(=O)O)CC(=O)O` [Ethylenediaminetetraacetic acid, Ethylenediamine-tetraacetic acid], in data set [1], the “Inhibition” value is “not” and the remaining activity at 1000 µM was 102%.

Turning to `CO` [Methanol], the Relative activity in data set [3] was found to be 0.2.

On to `O=S(=O)(F)Cc1ccccc1` [Phenylmethanesulfonyl fluoride, Phenylmethane-sulfonyl fluoride], for which the “Relative activity (remaining activity)” value in data set [1] (setting [10]) turned out to be 69.0%.

As for `CCCCCC[C@H](C)O` [(S)-2-Octanol], the Relative activity in data set [3] (setting [11]) is reported as 67.7%.

As to `CC(C)CC(C)O` (stereo not shown) [4-Methyl-2-pentanol], in [3] (oxidation, substrate 20 mM, coenzyme NAD+, relative to (S)-2-butanol oxidizing activity (100%)), the Relative activity was determined as 40.8%.

For the molecule `O=C(O)c1cc[c]([Hg][Cl])cc1` [p-Chloromercuribenzoic acid, p-Chloromercuri-benzoic acid], the “Inhibition” value in data set [1] was “markedly inhibited”; in data set [1] (listed as p-mercuribenzoic acid), “inhibited”. Moreover, the “Relative activity (remaining activity)” value in data set [1] (inhibitor 0.05 mM, 30° C. for 30 min, relative to untreated enzyme (100%)) is 0.0%.

As for `C[C@H](O)c1ccccc1` [(S)-1-Phenylethanol], the Relative activity in [3] is on record as 89.3.

Turning to `CCCCCCC(C)O` (racemic) [(RS)-2-Octanol], in data set [3] (setting [11]), the Relative activity is 39.2%.

Turning to `NO` [NH2 OH], the “Relative activity (remaining activity)” value in [1] (inhibitor 0.01 mM, 30° C. for 30 min, relative to untreated enzyme (100%)) is 92.7%.

Turning to `CCC=O` [Propionaldehyde], the Relative activity in [2] (substrate 100 mM) came to 76.2%.

Take `[N-]=[N+]=[N-].[Na+]` [NaN3]: in data set [1] (inhibitor 0.02(%), 30° C. for 30 min, relative to untreated enzyme (100%)), the “Relative activity (remaining activity)” value was found to be 89.9%.

With `c1cnc2c(c1)ccc1cccnc12` [o-Phenanthroline], in data set [1], the “Inhibition” value is “inhibited”. Further, the remaining activity at 1000 µM in [1] (setting [10]) came to 19%.

Consider `CC(=O)CCO` [4-Hydroxy-2-butanone], for which the Relative activity in data set [2] (substrate 100 mM) came out at 41.2%.

With `C[C@@H](O)c1ccccc1` [(R)-1-Phenylethanol], the Relative activity in data set [3] came to 1.1.

B1: secondary alcohol dehydrogenase: NAD+-dependent stereospecific secondary alcohol dehydrogenase purified from Candida parapsilosis IFO 1396, SEQ. ID NO: 2 (protein)
chain: MSIPSSQYGFVFNKQSGLNLRNDLPVHKPKAGQLLLKVDAVGLCHSDLHVIYEGLDCGDNYVMGHEIAGTVAAVGDDVINYKVGDRVACVGPNGCGGCKYCRGAIDNVCKNAFGDWFGLGYDGGYQQYLLVTRPRNLSRIPDNVSADVAAASTDAVLTPYHAIKMAQVSPTSNILLIGAGGLGGNAIQVAKAFGAKVTVLDKKKEARDQAKKLGADAVYETLPESISPGSFSACFDFVSVQATFDVCQKYVEPKGVIMPVGLGAPNLSFNLGDLALREIRILGSFWGTTNDLDDVLKLVSEGKVKPVVRSAKLKELPEYIEKLRNNAYEGRVVFNP
On to B1, for which the “pH optimum for the reduction of 2-butanone” value in data set [4] was 5.5-6.5. Further, in data set [5], the “Temperature range of high activity” value was 25-55 °C. Further, the Relative activity is 55% in data set [5] (30 °C); 65% in data set [5] (37 °C); 92% in data set [5] (45 °C); 100% in data set [5] (50 °C); 88% in data set [5] (55 °C); 0% in data set [5] (60 °C). This molecule returned an Optimum reaction temperature in data set [5] (standard assay conditions) of 50 °C. Besides, the “pH optimum for the oxidation of (S)-2-butanol” value in [6] is 8.5-9.5. The Specific activity in data set [7] is given as 1370 units/mg. Also, in [8], the “Remaining activity after heat treatment” value is listed as “more than 90%”.

B2: SADH-1: primary alcohol dehydrogenase derived from baker's yeast (Saccharomyces cerevisiae) (protein, UniProt P00330 2-348, looked up)
Alcohol dehydrogenase 1: SIPETQKGVIFYESHGKLEYKDIPVPKPKANELLINVKYSGVCHTDLHAWHGDWPLPVKLPLVGGHEGAGVVVGMGENVKGWKIGDYAGIKWLNGSCMACEYCELGNESNCPHADLSGYTHDGSFQQYATADAVQAAHIPQGTDLAQVAPILCAGITVYKALKSANLMAGHWVAISGAAGGLGSLAVQYAKAMGYRVLGIDGGEGKEELFRSIGGEVFIDFTKEKDIVGAVLKATDGGAHGVINVSVSEAAIEASTRYVRANGTTVLVGMPAGAKCCSDVFNQVVKSISIVGSYVGNRADTREALDFFARGLVKSPIKVVGLSTLPEIYEKMEKGQIVGRYVVDTSK
For B2, the “Relative activity for 2-butanol” value in data set [9] is on record as “about 1%”.

As usually defined, the remaining activity is the signal under treatment as a percentage of the control signal.
